The test concerns CD4+ T cells from SIV-infected, ART-suppressed adult RMs. Put plainly: Ex vivo viral RNA induction assay, adult CD4+ T cells. Format: cell-based, rhesus macaque. To be noted: 100 nM, 9 days, in presence of DTG+FTC. The text has this:
Following confirmation of ncNF-κB pathway activation in infant naive and memory CD4^+ T cells ex vivo, we next sought to evaluate SIV reactivation following ex vivo AZD5582 stimulation in CD4^+ T cells isolated from SIV-infected, ART-suppressed infant RMs compared to CD4^+ T cells from SIV-infected, ART-suppressed adult RMs. To do so, we isolated CD4^+ T cells through negative selection from the peripheral blood of five SIV-infected, ART-suppressed adult RMs and five SIV-infected, ART-suppressed infant RMs. Cells were stimulated with either 100 nM AZD5582 or rhesus specific anti-CD2/CD3/CD28 beads (as a positive control) in the presence of ART (DTG+FTC) for 9 days. The supernatant was collected to quantify SIVgag RNA through qPCR as a measure of viral reactivation.
Viable cryopreserved PBMCs from SIV-infected, ART-suppressed infant and adult RMs collected 34 to 97 weeks post ART initiation were thawed, and CD4^+ T cells were enriched by negative selection using the NHP CD4^+ T cell isolation kit (Miltenyi Biotec). […] The viral RNA content of frozen cell-free culture supernatants collected on day 9 was determined using the SIVgag qPCR described above.

SMILES strings stand for the structures.

On to `CN[C@@H](C)C(=O)N[C@H](C(=O)N1CCC[C@H]1C(=O)N[C@H]1c2ccccc2C[C@H]1OCC#CC#CCO[C@@H]1Cc2ccccc2[C@@H]1NC(=O)[C@@H]1CCCN1C(=O)[C@@H](NC(=O)[C@H](C)NC)C1CCCCC1)C1CCCCC1` [AZD5582], for which the “Animals whose CD4+ T cell cultures showed increased SIV RNA expression in supernatant” value is given as 3/5.

Values taken from paper PMC9006931, “Altered Response Pattern following AZD5582 Treatment of SIV-Infected, ART-Suppressed Rhesus Macaque Infants” (Journal of Virology, 2022).
